Test [1] addresses T1, HG20 (Homo sapiens, UniProt O75899).
Test [2] concerns the target T1, HG20. This is another data set of the same source.

T1 sequence (O75899 52-941): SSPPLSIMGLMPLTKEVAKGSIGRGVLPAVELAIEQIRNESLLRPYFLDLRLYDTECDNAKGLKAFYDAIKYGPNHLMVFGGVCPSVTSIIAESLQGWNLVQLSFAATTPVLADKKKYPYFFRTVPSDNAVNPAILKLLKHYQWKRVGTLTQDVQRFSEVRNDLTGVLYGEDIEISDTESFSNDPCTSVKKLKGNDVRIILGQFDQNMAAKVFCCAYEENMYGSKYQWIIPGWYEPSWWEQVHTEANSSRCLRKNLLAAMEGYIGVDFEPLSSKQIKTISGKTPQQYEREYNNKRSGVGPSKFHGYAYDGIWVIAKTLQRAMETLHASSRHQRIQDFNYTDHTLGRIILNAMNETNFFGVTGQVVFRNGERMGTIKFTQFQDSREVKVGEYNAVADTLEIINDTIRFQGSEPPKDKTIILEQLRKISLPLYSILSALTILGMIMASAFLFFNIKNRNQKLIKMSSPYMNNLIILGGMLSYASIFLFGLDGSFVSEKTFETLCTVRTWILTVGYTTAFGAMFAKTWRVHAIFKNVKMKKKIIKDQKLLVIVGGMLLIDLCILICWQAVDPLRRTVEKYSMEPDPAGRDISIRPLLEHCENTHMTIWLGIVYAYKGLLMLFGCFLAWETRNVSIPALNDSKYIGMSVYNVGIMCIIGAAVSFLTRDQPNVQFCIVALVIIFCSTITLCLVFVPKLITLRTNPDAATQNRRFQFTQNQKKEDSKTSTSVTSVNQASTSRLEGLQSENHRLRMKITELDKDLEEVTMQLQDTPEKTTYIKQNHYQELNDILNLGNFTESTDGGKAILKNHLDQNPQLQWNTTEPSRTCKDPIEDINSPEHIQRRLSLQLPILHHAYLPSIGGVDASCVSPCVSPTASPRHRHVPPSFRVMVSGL

For (−)Baclofen, on HG20 [1], the “activity in Xenopus melanophore functional assay” value is recorded as “no activity” and the “pigment aggregation or dispersion response” value is recorded as “no pigment aggregation or dispersion response”. At HG20 [2], the “activity in Xenopus oocyte functional assay” value is recorded as “no activity”.
Regarding `N[C@@H](CCC(=O)O)C(=O)O` [L-Glutamate, (L)-glutamic acid], on HG20 [1], the “activity in Xenopus melanophore functional assay” value was “no activity” and the “pigment aggregation or dispersion response” value was “no pigment aggregation or dispersion response”. The “activity in Xenopus oocyte functional assay” value on HG20 [2] is reported as “no activity”.
As to `O=S(=O)(O)C1CCNCC1` [piperidine-4-sulfonic acid], the “pigment aggregation or dispersion response” value on HG20 [1] is “no pigment aggregation or dispersion response”.
As to `NC/C=C\C(=O)O` [cis-4-aminocrotonic acid], the “pigment aggregation or dispersion response” value at HG20 [1] is “no pigment aggregation or dispersion response”.

Values taken from patent US20050130203A1, “Novel GABAB receptor DNA sequences” (Board of Regents, The University of Texas System, priority 1998, published 2005).
